Measured values: article PMC9481570, “A small molecule antagonist of SMN disrupts the interaction between SMN and RNAP II” (Nature Communications, 2022)
Values joined by “and” are separate entries in the source; they are usually repeats but may differ in a detail not shown here. Equal values may be shown once.

Tests used:
Assay in all cases: Affinity-purification and mass spectrometry (AP-MS) chemical proteomics, all proteins;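 as to Difference: 200 µM free competitor with 20 µM biotin probe overnight in lysate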
Assay type in all cases: binding
[1] = target: T1, proteins displaced from immobilized biotin-Cmpd 1 pulldowns (U2OS cell lysate) (Homo sapiens, UniProt P04083); conditions: GN=ANXA1 (P04083)
T1 construct: endogenous in cells; host or cells: U2OS
T1 sequence (P04083 whole entry): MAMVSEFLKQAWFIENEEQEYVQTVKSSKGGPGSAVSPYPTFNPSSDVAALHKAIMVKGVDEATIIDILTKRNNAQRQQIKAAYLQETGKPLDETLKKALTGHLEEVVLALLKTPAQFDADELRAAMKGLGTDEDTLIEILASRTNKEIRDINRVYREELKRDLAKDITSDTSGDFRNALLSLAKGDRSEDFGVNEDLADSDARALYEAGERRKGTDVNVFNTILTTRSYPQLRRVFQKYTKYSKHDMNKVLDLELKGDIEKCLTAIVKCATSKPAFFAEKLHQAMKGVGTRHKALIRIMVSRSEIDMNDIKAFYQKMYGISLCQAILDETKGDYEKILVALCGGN

[2] = target: T2, proteins displaced from immobilized biotin-Cmpd 1 pulldowns (U2OS cell lysate) (Homo sapiens, UniProt Q08945); conditions: GN=SSRP1 (Q08945)
T2 construct: endogenous in cells; host or cells: U2OS
T2 sequence (Q08945 whole entry): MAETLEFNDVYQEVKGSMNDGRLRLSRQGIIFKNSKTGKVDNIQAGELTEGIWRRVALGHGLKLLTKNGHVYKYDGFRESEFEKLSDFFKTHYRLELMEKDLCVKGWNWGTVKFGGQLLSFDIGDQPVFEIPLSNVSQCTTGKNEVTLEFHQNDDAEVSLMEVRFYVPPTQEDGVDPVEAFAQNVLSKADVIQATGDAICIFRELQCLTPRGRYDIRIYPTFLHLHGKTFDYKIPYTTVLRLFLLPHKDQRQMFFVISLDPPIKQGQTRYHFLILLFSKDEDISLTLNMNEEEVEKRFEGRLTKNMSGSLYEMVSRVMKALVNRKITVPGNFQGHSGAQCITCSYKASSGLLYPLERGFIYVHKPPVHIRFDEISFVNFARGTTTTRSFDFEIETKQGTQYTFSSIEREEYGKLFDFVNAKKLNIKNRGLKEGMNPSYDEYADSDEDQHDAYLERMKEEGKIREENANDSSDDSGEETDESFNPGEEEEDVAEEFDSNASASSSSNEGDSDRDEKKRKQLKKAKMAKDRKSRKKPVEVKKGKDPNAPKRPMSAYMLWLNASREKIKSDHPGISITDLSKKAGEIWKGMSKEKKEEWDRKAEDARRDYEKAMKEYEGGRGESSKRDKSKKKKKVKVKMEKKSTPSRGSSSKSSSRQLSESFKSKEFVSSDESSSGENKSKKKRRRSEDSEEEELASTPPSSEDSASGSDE

[3] = target: T3, proteins displaced from immobilized biotin-Cmpd 1 pulldowns (U2OS cell lysate) (Homo sapiens, UniProt Q9UI42); conditions: GN=CPA4 (Q9UI42)
T3 construct: endogenous in cells; host or cells: U2OS

[4] = target: T4, proteins displaced from immobilized biotin-Cmpd 1 pulldowns (U2OS cell lysate) (Homo sapiens, UniProt P62910); conditions: GN=RPL32 (P62910)
T4 construct: endogenous in cells; host or cells: U2OS

[5] = target: T5, proteins displaced from immobilized biotin-Cmpd 1 pulldowns (U2OS cell lysate) (Homo sapiens, UniProt O15213); conditions: GN=WDR46 (O15213)
T5 construct: endogenous in cells; host or cells: U2OS

[6] = target: T6, proteins displaced from immobilized biotin-Cmpd 1 pulldowns (U2OS cell lysate) (Homo sapiens, UniProt P42357); conditions: GN=HAL (P42357)
T6 construct: endogenous in cells; host or cells: U2OS

[7] = target: T7, proteins displaced from immobilized biotin-Cmpd 1 pulldowns (U2OS cell lysate) (Homo sapiens, UniProt Q15366); conditions: GN=PCBP2 (Q15366)
T7 construct: endogenous in cells; host or cells: U2OS

[8] = target: T8, proteins displaced from immobilized biotin-Cmpd 1 pulldowns (U2OS cell lysate) (Homo sapiens, UniProt O14979); conditions: GN=HNRNPDL (A0A087WU03)
T8 construct: endogenous in cells; host or cells: U2OS

[9] = target: T9, proteins displaced from immobilized biotin-Cmpd 1 pulldowns (U2OS cell lysate) (Homo sapiens, UniProt Q12873); conditions: GN=CHD3 (Q12873)
T9 construct: endogenous in cells; host or cells: U2OS
T9 sequence (Q12873 whole entry): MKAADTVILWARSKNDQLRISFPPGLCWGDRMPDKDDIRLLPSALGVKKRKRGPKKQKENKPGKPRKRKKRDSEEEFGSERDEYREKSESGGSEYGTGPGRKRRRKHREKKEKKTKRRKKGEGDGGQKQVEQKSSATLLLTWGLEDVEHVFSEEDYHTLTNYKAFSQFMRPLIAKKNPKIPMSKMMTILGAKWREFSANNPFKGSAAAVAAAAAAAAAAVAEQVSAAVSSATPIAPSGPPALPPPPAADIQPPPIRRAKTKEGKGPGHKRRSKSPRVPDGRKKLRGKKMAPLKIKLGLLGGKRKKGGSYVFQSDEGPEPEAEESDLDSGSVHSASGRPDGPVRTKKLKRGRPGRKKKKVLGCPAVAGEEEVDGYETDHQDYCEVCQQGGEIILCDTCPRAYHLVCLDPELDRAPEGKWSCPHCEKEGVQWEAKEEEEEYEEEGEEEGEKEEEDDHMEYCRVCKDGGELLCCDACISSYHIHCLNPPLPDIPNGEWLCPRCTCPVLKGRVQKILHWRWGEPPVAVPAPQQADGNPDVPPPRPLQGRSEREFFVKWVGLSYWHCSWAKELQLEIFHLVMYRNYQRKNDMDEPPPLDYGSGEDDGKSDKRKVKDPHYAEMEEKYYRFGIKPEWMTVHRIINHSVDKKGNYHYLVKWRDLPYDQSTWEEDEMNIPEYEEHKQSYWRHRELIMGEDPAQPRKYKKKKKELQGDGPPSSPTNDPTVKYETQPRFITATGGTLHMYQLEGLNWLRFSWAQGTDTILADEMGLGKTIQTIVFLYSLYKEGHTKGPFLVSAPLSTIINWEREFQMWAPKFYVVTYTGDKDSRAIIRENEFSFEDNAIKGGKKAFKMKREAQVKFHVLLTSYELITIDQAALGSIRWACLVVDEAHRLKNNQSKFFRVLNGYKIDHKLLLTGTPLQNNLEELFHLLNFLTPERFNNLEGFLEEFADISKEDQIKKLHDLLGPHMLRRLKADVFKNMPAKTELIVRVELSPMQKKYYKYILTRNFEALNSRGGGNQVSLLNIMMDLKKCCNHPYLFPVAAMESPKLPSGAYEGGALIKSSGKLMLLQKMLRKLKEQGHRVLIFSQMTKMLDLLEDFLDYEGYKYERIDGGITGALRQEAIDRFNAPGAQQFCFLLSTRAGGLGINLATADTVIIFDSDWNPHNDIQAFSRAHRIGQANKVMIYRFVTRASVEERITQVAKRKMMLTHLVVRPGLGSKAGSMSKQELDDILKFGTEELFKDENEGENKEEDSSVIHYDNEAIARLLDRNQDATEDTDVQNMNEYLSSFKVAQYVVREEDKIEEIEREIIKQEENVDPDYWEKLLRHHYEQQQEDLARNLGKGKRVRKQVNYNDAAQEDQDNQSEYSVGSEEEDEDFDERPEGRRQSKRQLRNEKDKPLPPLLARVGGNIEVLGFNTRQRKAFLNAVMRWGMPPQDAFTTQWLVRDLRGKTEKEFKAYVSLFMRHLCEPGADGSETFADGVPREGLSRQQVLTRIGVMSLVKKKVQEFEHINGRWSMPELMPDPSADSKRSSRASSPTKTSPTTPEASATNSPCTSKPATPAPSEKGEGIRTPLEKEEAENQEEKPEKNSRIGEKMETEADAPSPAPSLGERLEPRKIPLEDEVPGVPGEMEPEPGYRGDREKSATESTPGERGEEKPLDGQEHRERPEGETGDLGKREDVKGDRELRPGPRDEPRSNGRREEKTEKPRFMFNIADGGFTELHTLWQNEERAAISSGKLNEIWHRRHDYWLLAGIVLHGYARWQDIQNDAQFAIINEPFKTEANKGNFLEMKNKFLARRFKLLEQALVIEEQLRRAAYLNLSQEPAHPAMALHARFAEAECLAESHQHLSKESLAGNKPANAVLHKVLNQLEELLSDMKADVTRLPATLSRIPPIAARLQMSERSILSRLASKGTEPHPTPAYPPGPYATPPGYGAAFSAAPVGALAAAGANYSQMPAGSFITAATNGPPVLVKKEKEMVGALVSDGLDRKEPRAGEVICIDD

[10] = target: T10, proteins displaced from immobilized biotin-Cmpd 1 pulldowns (U2OS cell lysate) (Homo sapiens, UniProt Q92621); conditions: GN=NUP205 (Q92621)
T10 construct: endogenous in cells; host or cells: U2OS
T10 sequence (Q92621 whole entry): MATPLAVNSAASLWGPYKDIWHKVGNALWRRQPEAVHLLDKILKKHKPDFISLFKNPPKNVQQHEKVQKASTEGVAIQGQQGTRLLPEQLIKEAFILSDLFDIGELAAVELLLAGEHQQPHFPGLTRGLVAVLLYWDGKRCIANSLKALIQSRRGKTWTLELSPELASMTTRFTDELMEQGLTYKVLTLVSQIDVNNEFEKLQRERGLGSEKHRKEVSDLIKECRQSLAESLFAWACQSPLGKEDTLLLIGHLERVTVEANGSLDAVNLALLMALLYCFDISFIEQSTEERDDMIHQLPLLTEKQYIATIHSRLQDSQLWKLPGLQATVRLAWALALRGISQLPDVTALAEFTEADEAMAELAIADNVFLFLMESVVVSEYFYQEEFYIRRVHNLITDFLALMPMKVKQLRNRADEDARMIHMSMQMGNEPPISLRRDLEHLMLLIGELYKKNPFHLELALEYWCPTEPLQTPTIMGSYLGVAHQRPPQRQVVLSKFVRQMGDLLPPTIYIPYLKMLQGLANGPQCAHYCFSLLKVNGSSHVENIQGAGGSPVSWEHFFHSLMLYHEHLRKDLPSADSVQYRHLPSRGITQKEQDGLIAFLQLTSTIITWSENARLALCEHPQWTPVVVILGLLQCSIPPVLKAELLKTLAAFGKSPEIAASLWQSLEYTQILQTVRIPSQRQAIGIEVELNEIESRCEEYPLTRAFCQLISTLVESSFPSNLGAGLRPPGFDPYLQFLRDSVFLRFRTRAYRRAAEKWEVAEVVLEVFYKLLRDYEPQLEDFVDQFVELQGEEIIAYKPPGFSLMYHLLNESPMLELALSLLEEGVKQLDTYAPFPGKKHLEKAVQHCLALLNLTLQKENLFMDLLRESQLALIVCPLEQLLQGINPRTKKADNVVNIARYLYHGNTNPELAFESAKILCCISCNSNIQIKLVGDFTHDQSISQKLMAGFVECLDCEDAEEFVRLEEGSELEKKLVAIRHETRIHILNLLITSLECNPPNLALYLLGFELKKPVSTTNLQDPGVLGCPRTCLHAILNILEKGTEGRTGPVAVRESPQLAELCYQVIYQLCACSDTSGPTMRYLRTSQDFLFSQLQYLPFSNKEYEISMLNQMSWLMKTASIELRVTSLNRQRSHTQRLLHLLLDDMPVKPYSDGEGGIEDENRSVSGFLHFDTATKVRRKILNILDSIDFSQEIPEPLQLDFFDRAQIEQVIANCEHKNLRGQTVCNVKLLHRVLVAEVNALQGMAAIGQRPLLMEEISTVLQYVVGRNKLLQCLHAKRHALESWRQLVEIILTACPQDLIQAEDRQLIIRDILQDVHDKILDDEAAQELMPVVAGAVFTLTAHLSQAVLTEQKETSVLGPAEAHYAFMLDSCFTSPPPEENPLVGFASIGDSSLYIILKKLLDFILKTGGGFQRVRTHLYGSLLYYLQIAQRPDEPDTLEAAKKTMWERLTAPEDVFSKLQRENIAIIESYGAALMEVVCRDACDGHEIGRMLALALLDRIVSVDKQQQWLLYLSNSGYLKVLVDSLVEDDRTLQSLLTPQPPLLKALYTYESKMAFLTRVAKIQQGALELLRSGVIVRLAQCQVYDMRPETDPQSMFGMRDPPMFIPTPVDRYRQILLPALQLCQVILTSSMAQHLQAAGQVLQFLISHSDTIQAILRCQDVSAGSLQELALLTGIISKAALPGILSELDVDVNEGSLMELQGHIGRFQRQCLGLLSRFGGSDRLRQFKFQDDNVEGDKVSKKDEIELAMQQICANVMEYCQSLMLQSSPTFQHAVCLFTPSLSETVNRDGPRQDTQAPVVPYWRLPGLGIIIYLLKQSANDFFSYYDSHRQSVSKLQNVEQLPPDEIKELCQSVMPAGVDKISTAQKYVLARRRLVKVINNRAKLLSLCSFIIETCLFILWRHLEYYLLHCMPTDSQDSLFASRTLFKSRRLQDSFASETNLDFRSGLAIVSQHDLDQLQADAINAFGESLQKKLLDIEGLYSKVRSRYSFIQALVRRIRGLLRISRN

Cn1c2c(c(=N)c3c1CCC3)CCC2 [Compound 1, 4-methyl-2,3,4,5,6,7-hexahydrodicyclopenta[b,e]pyridin-8(1H)-imine]
Difference ([1]; Cmpd minus DMSO, -LOG(P-value) 1.67082): -2.872
iBAQ Cmpd ([1]; replicates 1-3): 14.2553 and 14.7701 and 16.566
Difference ([2]; Cmpd minus DMSO, -LOG(P-value) 0.732843): 0.3628
iBAQ Cmpd ([2]; replicates 1-3): 19.198 and 18.7704 and 18.706
Difference ([3]; Cmpd minus DMSO, -LOG(P-value) 1.07291): -1.567
iBAQ Cmpd ([3]; replicates 1-3): 17.2042 and 16.9875 and 16.0895
Difference ([4]; Cmpd minus DMSO, -LOG(P-value) 0.742167): 3.21
iBAQ Cmpd ([4]; replicates 1-3): 19.3082 and 19.1191 and 19.5272
Difference ([5]; Cmpd minus DMSO, -LOG(P-value) 1.25579): -1.697
iBAQ Cmpd ([5]; replicates 1-3): 17.4002 and 17.0091 and 16.4289
Difference ([6]; Cmpd minus DMSO, -LOG(P-value) 1.13561): -1.443
iBAQ Cmpd ([6]; replicates 1-3): 15.8179 and 16.0542 and 14.8398
Difference ([7]; Cmpd minus DMSO, -LOG(P-value) 0.939549): -2.733
iBAQ Cmpd ([7]; replicates 1-3): 15.8606 and 15.1154 and 18.8903
Difference ([8]; Cmpd minus DMSO, -LOG(P-value) 0.798528): 1.553
iBAQ Cmpd ([8]; replicates 1-3): 20.8595 and 22.7108 and 22.2667
Difference ([9]; Cmpd minus DMSO, -LOG(P-value) 0.756951): -1.815
iBAQ Cmpd ([9]; replicates 1-3): 14.8034 and 14.2721 and 13.9438
Difference ([10]; Cmpd minus DMSO, -LOG(P-value) 0.772292): 1.661
iBAQ Cmpd ([10]; replicates 1-3): 17.4605 and 16.7059 and 15.0689
